Results reported in patent EP0723771A2, “Agent and process for permanent hair waving” (Wella Aktiengesellschaft, priority 1995, dated 1996).

Settings: lower pH values (pH = 7 or 8); conclusion from Tabelle 1
Experimental: Zum Vergleich der Wellwirksamkeit wurden an blondierten Haarsträhnen aus mitteleuropäischem Haar Wellstabilitäten ermittelt. Hierzu wurden 16,5 Zentimeter lange, aus etwa 100 Haaren bestehende Haarsträhnen auf Wickler mit einem Innendurchmesser von 3 Millimetern gewickelt und mit einer 87 mmol Reduktionsmittel pro 100 g Lösung enthaltenden, auf den jeweiligen pH-Wert eingestellten, Reduktionsmittellösung bei 50 Grad Celsius 20 Minuten lang behandelt, wobei eine Menge von 1,2 ml Reduktionsmittellösung pro Gramm Haarsträhne verwendet wurde.
Anschließend wurde das Haar mit einer 3-prozentigen wäßrigen Wasserstoffperoxidlösung oxidativ nachbehandelt, getrocknet und sodann 4 Stunden lang in Wasser ausgehängt. Im Anschluß hieran wurde die Wellstabilität bestimmt.
Die Wellstabilitäten wurden hierbei nach der folgenden Formel ermittelt: [formula] I0 = Gesamtlänge der nicht umgeformten, gestreckten Strähne (16,5 Zentimeter) It = Länge der abgewickelten, ausgehängten Strähne nach 240 Minuten I1 = Länge der umgeformten, aufgewickelten Strähne bei einem Wickelinnendurchmesser von 3 mm (I1 = 35 Millimeter)
Als Reduktionsmittel wurden Cysteamin (Formel (I) mit R = H) und N-Mesylcysteamin (Formel (I) mit R = SO2CH3) sowie als Vergleichsstandard eine auf pH = 9 eingestellte Glycerinmonothioglycolat-Lösung (Wellstabilität = 100 %) verwendet. […]

CS(=O)(=O)NCCS [R = -SO2-CH3, N-2-Mercaptoethylmethansulfonsäureamid]
Wellwirksamkeit gegenüber Cysteamin: signifikant höhere Wellwirksamkeit
